How the values were obtained:
Test in all cases: Methylglyoxal synthase assay
[1] = target: T1, Thermus thermophilus HB27 methylglyoxal synthase (mgsA), wild type (Thermus thermophilus, UniProt Q72HP3); assay type: biochemical, T. thermophilus; details: substrate dihydroxyacetone phosphate 0.15-1.5 mM; crude extract; pH 7.0; 30° C.
T1 sequence (Q72HP3 1-126): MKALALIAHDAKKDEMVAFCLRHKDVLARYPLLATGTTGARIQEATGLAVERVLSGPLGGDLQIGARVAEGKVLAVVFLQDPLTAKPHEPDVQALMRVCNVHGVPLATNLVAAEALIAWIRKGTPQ
Text: (§1) 1,2-Propanediol pathway branches from glycolysis and competes for the intermediate dihydroxyacetone phosphate, with the glycolytic pathway. […] We amplified the mgsA genes from the microorganisms: C. acetobutylicum (ATCC#824), B. subtilis 168, C. difficile R20291, E. coli MG1655, T. thermophilus HB27, K. pneumoniae MGH78578, P. fluorescens Pf-5, and R. eutropha H16 respectively. These genes were cloned and expressed in wild type E. coli BW25113 using eight plasmids pRJ1-pRJ8. Each gene was under the control of the IPTG-inducible pLlacO1 promoter. Using dihydroxyacetone-phosphate as the substrate, we successfully detected the functional expression of all mgsA genes in vitro, where the specific activities varied from 0.0052 U/mg to 0.1242 U/mg (Table 1). […] Without the over-expression of mgsA gene, we also detected the native expression of E. coli mgsA, which gave a specific activity of only 0.0008 U/mg, much lower than that of any over-expression.
(§2) Using the primers listed in Table 5, the mgsA genes were PCR amplified from the genomic DNA of C. acetobutylicum (ATCC824), B. subtilis 168, Clostridium difficile R20291, E. coli MG1655, Thermus thermophilus HB27, K. pneumoniae MGH78578, Pseudomonas fluorescens Pf-5, and Ralstonia eutropha H16 respectively. […]
(§3) The assay was carried out using a two-step procedure. […] The samples were diluted 10 times before measuring the absorbance at 550 nm.

[2] = target: Clostridium difficile R20291 methylglyoxal synthase (mgsA), wild type (Clostridioides difficile, UniProt A0A9R0BJ64); assay type: biochemical, C. difficile; details: substrate dihydroxyacetone phosphate 0.15-1.5 mM; crude extract; pH 7.0; 30° C.
Text: as §1, §2, §3

[3] = target: T2, Clostridium acetobutylicum (ATCC 824) methylglyoxal synthase (mgsA), wild type (Clostridium acetobutylicum, UniProt Q97IN6); assay type: biochemical, C. acetobutylicum; details: substrate dihydroxyacetone phosphate 0.15-1.5 mM; crude extract; pH 7.0; 30° C.
T2 sequence (Q97IN6 1-145): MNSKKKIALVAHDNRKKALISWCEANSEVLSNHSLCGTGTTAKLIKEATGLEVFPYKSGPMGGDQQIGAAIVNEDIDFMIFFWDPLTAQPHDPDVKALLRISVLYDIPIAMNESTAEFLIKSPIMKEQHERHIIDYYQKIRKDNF
Text: as §1, §2, §3

[4] = target: T3, Ralstonia eutropha H16 methylglyoxal synthase (mgsA), wild type (Cupriavidus necator, UniProt Q0KD43); assay type: biochemical, R. eutropha; details: substrate dihydroxyacetone phosphate 0.15-1.5 mM; crude extract; pH 7.0; 30° C.
T3 sequence (Q0KD43 1-132): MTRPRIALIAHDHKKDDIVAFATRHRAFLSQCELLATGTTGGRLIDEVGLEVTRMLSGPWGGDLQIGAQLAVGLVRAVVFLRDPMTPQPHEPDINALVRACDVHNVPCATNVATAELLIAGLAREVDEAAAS
Text: as §1, §2, §3

[5] = target: Klebsiella pneumoniae MGH78578 methylglyoxal synthase (mgsA), wild type (Klebsiella pneumoniae, UniProt A6T757); assay type: biochemical, K. pneumoniae; details: substrate dihydroxyacetone phosphate 0.15-1.5 mM; crude extract; pH 7.0; 30° C.
Text: as §1, §2, §3

[6] = target: E. coli MG1655 methylglyoxal synthase (mgsA), wild type (Escherichia coli, UniProt P0A731); assay type: biochemical; details: substrate dihydroxyacetone phosphate 0.15-1.5 mM; crude extract; pH 7.0; 30° C.
Text: as §1, §2, §3

[7] = target: T4, Bacillus subtilis 168 methylglyoxal synthase (mgsA), wild type (Bacillus subtilis, UniProt P42980); assay type: biochemical, B. subtilis
T4 sequence (P42980 1-137): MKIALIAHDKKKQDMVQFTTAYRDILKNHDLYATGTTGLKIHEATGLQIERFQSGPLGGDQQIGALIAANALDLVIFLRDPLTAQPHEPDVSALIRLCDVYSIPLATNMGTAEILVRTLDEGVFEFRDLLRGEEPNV
Text: as §1, §2, §3

[8] = target: T5, Pseudomonas fluorescens Pf-5 methylglyoxal synthase (mgsA), wild type (Pseudomonas protegens, UniProt Q4K7S5); assay type: biochemical, P. fluorescens; details: substrate dihydroxyacetone phosphate 0.15-1.5 mM; crude extract; pH 7.0; 30° C.
T5 sequence (Q4K7S5 1-154): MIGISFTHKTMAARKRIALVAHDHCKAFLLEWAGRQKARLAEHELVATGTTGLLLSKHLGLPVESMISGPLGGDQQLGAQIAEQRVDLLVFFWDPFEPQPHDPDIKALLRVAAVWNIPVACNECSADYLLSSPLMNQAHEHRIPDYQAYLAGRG
Text: as §1, §2, §3

E. coli MG1655 methylglyoxal synthase (mgsA), wild type, sequence (P0A731 whole entry): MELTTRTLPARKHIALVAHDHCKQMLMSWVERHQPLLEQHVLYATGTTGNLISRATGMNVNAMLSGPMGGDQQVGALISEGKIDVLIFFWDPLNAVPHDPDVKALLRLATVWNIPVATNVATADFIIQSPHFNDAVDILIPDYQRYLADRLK
Klebsiella pneumoniae MGH78578 methylglyoxal synthase (mgsA), wild type, sequence (A6T757 6-157): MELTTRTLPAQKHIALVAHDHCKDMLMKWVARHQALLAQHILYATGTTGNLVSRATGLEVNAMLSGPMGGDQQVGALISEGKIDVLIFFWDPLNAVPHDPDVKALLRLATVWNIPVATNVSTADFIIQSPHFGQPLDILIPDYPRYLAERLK
Clostridium difficile R20291 methylglyoxal synthase (mgsA), wild type, sequence (A0A9R0BJ64 entry or part of it): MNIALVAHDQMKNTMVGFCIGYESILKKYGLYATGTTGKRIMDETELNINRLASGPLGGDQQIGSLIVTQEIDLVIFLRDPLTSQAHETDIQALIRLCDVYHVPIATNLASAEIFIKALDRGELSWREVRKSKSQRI

Compound: O=C(CO)COP(=O)(O)O [dihydroxyacetone phosphate]
- Specific Activity/Km [1]: 0.0076 U/mg/mM
- Specific Activity/Km [2]: 0.0415 U/mg/mM
- Specific Activity/Km [3]: 0.0697 U/mg/mM
- Specific Activity/Km [4]: 0.0074 U/mg/mM
- Specific Activity/Km [5]: 0.0058 U/mg/mM
- Specific Activity/Km [6]: 0.0876 U/mg/mM
- Specific Activity/Km ([7]; substrate dihydroxyacetone phosphate 0.15-1.5 mM, crude extract, pH 7.0, 30° C.): 0.1186 U/mg/mM
- ratio of specific activity/Km ([7]; substrate dihydroxyacetone-phosphate): 0.1186
- Specific Activity/Km [8]: 0.0085 U/mg/mM
